From US7642287B2, “Statin pharmaceutical compositions and related methods of treatment” (Transform Pharmaceuticals, Inc., priority 2004, dated 2010)
“And” between values parts separate entries of the source, which are not always exact repeats. Identical values can stand only once. Counter-ions that a name gives are not always drawn. Like-named read-outs stand apart in the source and are kept apart here. One block for each molecule: values may come before it.

Key:
[1] = Gravimetric solubility in deionized water at 23 degrees C; assay type: physicochemical; conditions: listed as calcium salt of fluvastatin
Protocol: Solubility measurements of the sodium salt and of the calcium salt of fluvastatin were acquired in water at 23 degrees C. Solubility was measured gravimetrically in deionized water.

[2] = Pharmacokinetic two-way cross-over study in fasted beagle dogs (plasma pravastatin, LC/MS); assay type: in vivo
Protocol: A two-way cross-over experiment was completed with six fasted beagle dogs to compare the pharmacokinetic parameters of pravastatin calcium salt with pravastatin sodium salt. The pravastatin sodium salt was acquired from PRAVACHOL® tablets. The pravastatin calcium salt was acquired via the method described in Example 1. The pravastatin calcium salt dosage form administered to the dogs consisted of 11.0 mg pravastatin calcium salt (equivalent to 10 mg pravastatin acid) and 744 mg Ropufa 75 ethyl esters of omega-3 fatty acids in a soft gelatin capsule shell. […] The mean dose of pravastatin free acid administered as PRAVACHOL® was 0.85 mg/kg and the mean dose of pravastatin free acid administered as pravastatin calcium salt was 0.95 mg/kg. Following administration, plasma samples were collected pre-dose and then at 0.25, 0.5, 1, 1.5, 2, 3, 4, 6, 8, 12, and 24 hours post-dose. Plasma samples were analyzed for pravastatin concentration using an LC/MS method.

[3] = 26 week stability of pravastatin salts suspended in E463808 omega-3 oil (HPLC); assay type: physicochemical
Protocol: Several salts of pravastatin were suspended in E463808 omega-3 oil and placed in either capped glass vials or sealed gelatin capsules. […] were used at 25 degrees C. while glass vials were used at 25, 40, and 60 degrees C. The suspensions of salt in oil were measured periodically for 26 weeks. HPLC was used to measure degradation of the pravastatin salts.

[4] = Aqueous solubility via UV absorption; conditions: water, via UV detection, 20-25 degrees C.
Protocol: The term “aqueous solubility” refers to the solubility as measured in deionized water at about 25 degrees C., unless otherwise specified.
A calibration curve was constructed by preparing known concentrations of API in absolute ethanol in volumetric flasks. At each concentration, 200 microliters of the solution was transferred into a 96-well clear bottom UV plate. The sample absorbance was measured at 280 nm (unless otherwise noted) in a UV spectrophotometer.
To measure the API concentration in the sample, a small aliquot was taken and diluted (typically 2000-fold) with absolute ethanol in a volumetric flask to a final approximate concentration of less than 100 micrograms/mL. The absorbance at 280 nm (unless otherwise noted) is measured and the solubility is calculated based on the calibration curve.

[5] = Dynamic Vapor Sorption (DVS) moisture sorption isotherm; assay type: physicochemical
Description: Dynamic Vapor Sorption (DVS) data were also acquired on both the pravastatin calcium salt and the pravastatin sodium salt. […] This is consistent with an amorphous compound. Hysteresis is observed in the desorption cycle. […] Significant hysteresis is observed in the desorption cycle.

[6] = assay type: physicochemical
Protocol: Several salts of pravastatin were suspended in 87:13 E681010:ethanol mixtures and placed in capped glass vials. Each suspension of pravastatin calcium, pravastatin magnesium, pravastatin sodium, or pravastatin zinc in 87:13 E681010:ethanol was measured periodically for 12 weeks. HPLC was used to measure degradation of the pravastatin salts.

[7] = beagle, dog, plasma, po, 0.95 mg/kg, Mean of six fasted beagle dogs, mean dose as free acid 0.95 mg/kg (calcium salt softgel), 0.85 mg/kg (PRAVACHOL)
[8] = individual dogs, oral, fasted, mean dose as free acid 0.95 mg/kg (calcium salt softgel), 0.85 mg/kg (PRAVACHOL), calcium salt
[9] = suspension in E463808, capped glass vials, 8 weeks

Molecule: CC(C)n1c(/C=C/C(O)CC(O)CC(=O)O)c(-c2ccc(F)cc2)c2ccccc21 (centres unmarked) [fluvastatin calcium salt]
aqueous solubility [1]: less than or equal to 0.275 mg/mL

Molecule: CC[C@H](C)C(=O)O[C@H]1C[C@H](O)C=C2C=C[C@H](C)[C@H](CC[C@@H](O)C[C@@H](O)CC(=O)O)[C@H]21 [pravastatin calcium salt]
bioavailability ([2]; beagle, dog, plasma, po, 0.95 mg/kg, Mean of six dogs, relative to PRAVACHOL AUCinf, dose-normalized): 121%
AUC(0-inf) [2, 7]: 441 ng·h/mL
AUC(0-t) [2, 7]: 432 ng·h/mL
half-life [2, 7]: 2.35 h
Cmax ([2]; beagle, dog, plasma, po, 0.95 mg/kg, Mean of six fasted beagle dogs, oral, mean dose as free acid 0.95 mg/kg (calcium salt softgel), 0.85 mg/kg (PRAVACHOL), read-out: Cmax): 141 ng/mL
Tmax ([2]; beagle, dog, plasma, po, 0.95 mg/kg, Mean of six fasted beagle dogs, oral, mean dose as free acid 0.95 mg/kg (calcium salt softgel), 0.85 mg/kg (PRAVACHOL), read-out: Tmax): 0.71 h
AUC(0-t) ([2]; beagle, dog, plasma, po, 0.95 mg/kg, individual dogs, fasted, mean dose as free acid 0.95 mg/kg (calcium salt in Ropufa 75 omega-3 ethyl esters softgel), 0.85 mg/kg (PRAVACHOL)): 488 ng·h/mL
AUC(0-inf) ([2]; beagle, dog, plasma, po, 0.95 mg/kg, individual dogs, fasted, mean dose as free acid 0.95 mg/kg (calcium salt softgel), 0.85 mg/kg (PRAVACHOL)): 494 ng·h/mL
AUC values compared with the PRAVACHOL tablet ([2]; fasted beagle dogs, oral): slightly higher
Cmax values compared with the PRAVACHOL tablet ([2]; fasted beagle dogs, oral): slightly higher
Tmax values compared between the formulations ([2]; fasted beagle dogs, oral): comparable
AUC0–t ([2]; individual dogs, oral, fasted, mean dose as free acid 0.95 mg/kg (calcium salt in Ropufa 75 omega-3 ethyl esters softgel), 0.85 mg/kg (PRAVACHOL), calcium salt): 438.55 ng·h/mL and 505.30 ng·h/mL and 380.68 ng·h/mL and 512.94 ng·h/mL and 264.11 ng·h/mL
AUCinf [2, 8]: 453.69 ng·h/mL and 515.14 ng·h/mL and 396.20 ng·h/mL and 518.11 ng·h/mL and 268.01 ng·h/mL
Cmax [2, 8]: 182 ng/mL and 131 ng/mL and 166 ng/mL and 99.0 ng/mL and 87.2 ng/mL
Tmax [2, 8]: 1 h and 0.5 h and 0.25 h
t1/2 [2, 8]: 1.67 h and 2.5 h and 1.89 h and 2.76 h and 3.44 h and 1.85 h
stability in suspension of omega-3 oil relative to other pravastatin salts (sodium, potassium) ([3]; summary statement referring to the Exemplification): higher stability
degradation at 60 degrees C. vs potassium salt at 40 degrees C. [3, 9]: significantly less degradation
degradation at 60 degrees C. vs sodium salt at 40 degrees C. [3, 9]: similar
degradation vs sodium or potassium salt at a given temperature ([3]; suspension in E463808, capped glass vials, 40 and 60 degrees C.): degrade substantially less
degradation compared with all salts in gelcap or vial ([3]; suspension in E463808, vial, 25 degrees C., 26 weeks): degrade the least
aqueous solubility ([4]; listed as calcium salt of pravastatin, calcium salt): 17 to 20 mg/mL

Molecule: CC[C@H](C)C(=O)O[C@H]1C[C@H](O)C=C2C=C[C@H](C)[C@H](CC[C@@H](O)C[C@@H](O)CC(=O)O)[C@H]21 [pravastatin sodium salt]
aqueous solubility ([4]; listed as sodium salt of pravastatin, sodium salt): greater than 300 mg/mL
hygroscopicity compared with the calcium salt ([5]; DVS): greater hygroscopicity
relative humidity above which adsorbed water increased significantly ([5]; DVS sorp-desorp cycle): about 54 percent RH

Molecule: CC[C@H](C)C(=O)O[C@H]1C[C@H](O)C=C2C=C[C@H](C)[C@H](CC[C@@H](O)C[C@@H](O)CC(=O)O)[C@H]21.[Zn] [pravastatin zinc salt]
moisture sorption behaviour (DVS isotherm) ([5]; 25 degrees C.): gradual increase in moisture sorption
degradation to the lactone (percent lactone) [6]: about 3%
stability in suspension of omega-3 oil and an alcohol relative to other pravastatin salts [6]: higher stability

Molecule: pravastatin magnesium salt
aqueous solubility [4]: 17.24 mg/mL

Next, values leading:

aqueous solubility [4]: 14.22 mg/mL
Molecule: CCC(C)C(=O)OC1CC(O)C=C2C=CC(C)C(CCC(O)CC(O)CC(=O)[O-])C21.CCC(C)C(=O)OC1CC(O)C=C2C=CC(C)C(CCC(O)CC(O)CC(=O)[O-])C21.[Mg+2] (centres unmarked) [pravastatin magnesium salt (habit A), pravastatin magnesium salt]

aqueous solubility [4]: 16.12 mg/mL
Molecule: CCC(C)C(=O)OC1CC(O)C=C2C=CC(C)C(CCC(O)CC(O)CC(=O)[O-])C21.CCC(C)C(=O)OC1CC(O)C=C2C=CC(C)C(CCC(O)CC(O)CC(=O)[O-])C21.[Mg+2] (centres unmarked) [pravastatin magnesium salt (habit B), pravastatin magnesium salt]
